The assay concerns the target T1, human melanopsin (Homo sapiens, UniProt Q9UHM6).
T1 sequence (Q9UHM6 1-384 limits assumed): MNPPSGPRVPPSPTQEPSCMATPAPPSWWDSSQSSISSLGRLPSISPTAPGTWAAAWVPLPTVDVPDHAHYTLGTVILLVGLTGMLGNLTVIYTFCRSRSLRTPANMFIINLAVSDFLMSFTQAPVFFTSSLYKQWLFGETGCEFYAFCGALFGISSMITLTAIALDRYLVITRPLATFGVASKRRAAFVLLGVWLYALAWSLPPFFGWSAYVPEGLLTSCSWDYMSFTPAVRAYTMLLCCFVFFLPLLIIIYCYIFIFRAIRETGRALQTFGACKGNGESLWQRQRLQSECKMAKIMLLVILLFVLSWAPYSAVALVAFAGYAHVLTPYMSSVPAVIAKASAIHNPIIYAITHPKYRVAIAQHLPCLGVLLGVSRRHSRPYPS
In words: GsX GloSensor assay with exogenous Gsα WT. Also noted: the C-terminal amino acid residues (94, 140, 200, 214, 296, and 308 residues); expressed in transfected cells; host or cells: COS-1. The class given is cell-based. The conditions noted are these: 16.7 μM AA92593; COS-1 cells. An excerpt: Previous studies of human and mouse melanopsins reported that these melanopsins can activate not only Gq but Gs and Gi ([20], [21], [22]). Thus, we assessed the effect of AA92593 on Gsα WT or Gsα/i11 (with 11 C-terminal sequence of Giα) using the GsX GloSensor assay. In agreement with the promiscuous G protein-coupling of melanopsins, we observed light-dependent increase of GloSensor luminescence in COS-1 cells expressing Gsα or Gsα/i11 with human/mouse melanopsins (Fig. 1, G–J).
For GloSensor assay, opsins, GloSensor assay sensor (coded by pGlo-22F), and NanoBiT-tagged G proteins were transiently expressed in COS-1 cells (kindly provided from Dr David Farrens, Oregon Health and Science University) using PEI as described previously ([24], [52]). […] For GFP-fluorescence microscopy, a 35-mm cell culture dish (IWAKI) was transfected with 2 μg melanopsin-GFP plasmid and 8 μg PEI in 400 μl Opti-mem and 1.2 ml D-MEM. […]
The transfected COS-1 cells were incubated at 37 °C, 5% CO2 for 2 days, and the medium was aspirated and exchanged with 50 μl of HBSS (145 mM NaCl, 10 mM D-glucose, 5 mM KCl, 1 mM MgCl2, 1.7 mM CaCl2, 1.5 mM NaHCO3, 10 mM Hepes, pH 7.4), containing 33.3, 20, 10, 2, 0.2, 0.02, 0.002, or 0 μM AA92593, 0.5% dimetyl sulfoxide (DMSO), and 4% (vol/vol) GloSensor cAMP reagent stock solution. […] Luminescence was measured using GM-2000 or GM-3510 microplate reader (Promega). […]

The record followed here is publication PMC12051620, “Molecular basis underlying the specificity of an antagonist AA92593 for mammalian melanopsins” (The Journal of Biological Chemistry, 2025).

`COc1ccc(S(=O)(=O)N2CCCCC2)cc1C` [AA92593]: the “effect on melanopsin-induced cAMP responses via exogenous Gsα” value is “can suppress”.
